Assay results taken from patent publication US20220144747A1, “SHIKIMATE ANALOGUES AND METHODS OF USE” (The Board of Regents of the University of Oklahoma, priority 2016, published 2022).
Converted amounts (≈) assume the structure as drawn.

How the values were obtained:
[1] = Thiol neutralization on pig skin (LCMS); conditions: with spermine in 50% propylene glycol, 2-phenylethanethiol, 10 min
Method: After the Pericosine composition was applied to the thiol on the pig skin and allowed to react for 10 minutes, an eluate from the treated area was analyzed with LCMS. Only a pericosine-thiol conjugate was detected.
Pericosine A, spermine, and the model thiol compound 2-phenylethanethiol were prepared into 100 mM stock solutions in dimethyl sulfoxide (DMSO). 5 uL pericosine A and 5 uL spermine solutions were pre-mixed into 50 uL 50% propylene glycol to form a test composition. A piece of pig skin (1 inch×1 inch) was placed in a 10-cm ID petri dish. 5 uL of the thiol solution was dispensed onto the pig skin sample. The pericosine test composition was applied to the thiol-treated spot on the pig skin sample. The petri dish was covered and gently agitated to cause the thiol sample to mix with the pericosine test composition. After 10 min incubation, the solution on the pig skin was transferred using a pipet into an Eppendorf tube. The treated spot on the pig skin was extracted with 100 uL MeOH and the MeOH solution was combined with the solution in the Eppendorf tube. After mixing and centrifuging, the mixed solution was subjected to LCMS analysis.
As shown in FIG. 21(a), a major pericosine-thiol conjugated product was detected by the LCMS analysis in the solution removed from the pig skin.

[2] = test system: fungi T1, T2, P1, P4, and A1; assay: Antifungal test of 13 on fungal cultures preincubated / co-treated with 11; type: cell-based, Tolypocladium spp., Penicillium spp., Aspergillus niger
Source text: (§1) Media types: PDB (potato dextrose broth); PDB-N(PDB plus 2 g/L NaNO3); PDB 8:2 (mixture of centrifuged broth of T1 grown in PDB for 5 days with fresh PDB at the ratio of 8:2); PDB-N 8:2 (mixture of centrifuged broth of T1 grown in PDB-N for 5 days with fresh PDB at the ratio of 8:2).
This prompted us to ask the question what effect the addition of the shikimate analogue moiety had on the bioactivities of compounds 8, 9, 12, and the other nucleophilic substances that we tested. A panel of fungi including four Tolypocladium spp. (T1-T4), four Penicillium spp. (P1-P4) and Aspergillus niger (A1) were selected for assessment. […] To test the capacity of 11 to block the toxicity of 13 in real time, fungal cultures were preincubated with 11 and then treated with varying doses of 13. This regimen of preadministering 11 afforded up to an 8-fold decrease in the MIC of 13 (FIG. 15A). […] We had also noted that the addition of NaNO3 to the culture medium thoroughly abolished the formation of 10 and 11. […]
(§2) The effects of compounds on fungal growth of fungi were tested using the method described in the NCCLS M38-A guidelines with following modifications. […] After 72 h of incubation at 25° C., the optical densities of fungi were measured using a microplate reader (Infinite M200, Tecan Group Ltd.). […]

[3] = test system: four Tolypocladium spp. (T1-T4), four Penicillium spp. (P1-P4) and Aspergillus niger (A1); assay: Antifungal test (MIC) against a panel of test fungi; type: cell-based; conditions: against all of the fungal strains of the panel, 72 h, 25° C., MIC = >80% growth reduction, read-out: MIC (growth inhibition)
Method: This prompted us to ask the question what effect the addition of the shikimate analogue moiety had on the bioactivities of compounds 8, 9, 12, and the other nucleophilic substances that we tested. A panel of fungi including four Tolypocladium spp. (T1-T4), four Penicillium spp. (P1-P4) and Aspergillus niger (A1) were selected for assessment. […] To test the capacity of 11 to block the toxicity of 13 in real time, fungal cultures were preincubated with 11 and then treated with varying doses of 13. This regimen of preadministering 11 afforded up to an 8-fold decrease in the MIC of 13 (FIG. 15A). […] We had also noted that the addition of NaNO3 to the culture medium thoroughly abolished the formation of 10 and 11. […] Whereas previously reported resistance mechanisms involving antibiotic modification depended on the enzymatic modification of target substrates, fungal metabolites 10 and 11 functioned as electrophilic warheads that were reactive to a wide variety of natural and synthetic organic substances. […]
as §2

Tolypocladium sp. T1 = assay: Antifungal test against T1 in PDB / PDB-N media (fresh or 5-day-old T1 broth); type: cell-based; conditions: for effect of supplemental NaNO3 in test medium on antifungal efficacy: against T1, PDB-N = PDB plus 2 g/L NaNO3; for sensitivity of T1 to antifungal activity, normal versus NaNO3-supplemented medium: freshly prepared media, 3-day test window; for resistance of T1 culture: test medium prepared from 5-day-old T1 culture broth, non-NaNO3-supplemented
Source text: as §1
This prompted us to ask the question what effect the addition of the shikimate analogue moiety had on the bioactivities of compounds 8, 9, 12, and the other nucleophilic substances that we tested. A panel of fungi including four Tolypocladium spp. (T1-T4), four Penicillium spp. (P1-P4) and Aspergillus niger (A1) were selected for assessment. […] To test the capacity of 11 to block the toxicity of 13 in real time, fungal cultures were preincubated with 11 and then treated with varying doses of 13. This regimen of preadministering 11 afforded up to an 8-fold decrease in the MIC of 13 (FIG. 15A). […] We had also noted that the addition of NaNO3 to the culture medium thoroughly abolished the formation of 10 and 11. […] Whereas previously reported resistance mechanisms involving antibiotic modification depended on the enzymatic modification of target substrates, fungal metabolites 10 and 11 functioned as electrophilic warheads that were reactive to a wide variety of natural and synthetic organic substances. The actions of these metabolites serve to limit the deleterious effects of antibiotics/toxins against their microbial targets.
The effects of compounds on fungal growth of fungi were tested using the method described in the NCCLS M38-A guidelines with following modifications. Fungi were cultured on PDA plates (potato dextrose agar, Becton Dickinson and Company) at 25° C. for 6-10 days. The spores/mycelia were disrupted by mechanical agitation and diluted in RPMI 1640 medium (Sigma Chemical Corporation) buffered to pH 7.0 with MOPS (0.165 M, Sigma). Test compounds were prepared in DMSO or EtOH at stock concentrations of 10 mM before being serially diluted in 50 μL RPMI 1640 plus MOPS medium for testing. Aliquots of spore suspension were added to the medium containing the diluted compounds or vehicle (<1% by vol.). After 72 h of incubation at 25° C., the optical densities of fungi were measured using a microplate reader (Infinite M200, Tecan Group Ltd.). The minimum inhibitory concentration (MIC) for growth was defined as the lowest concentration causing prominent growth reduction (>80%). The RPMI 1640 medium was replaced by PDB medium or PDB-N(PDB with 2 g/L NaNO3) for the indicated antifungal tests.

[4] = test system: EpiDerm™ reconstructed human epidermis tissues; assay: Time course toxicity in EpiDerm tissues (MTT assay); type: cell-based; conditions: after 24 hours
Method: All substances are safe for greater than 24 hours, at even a very high dose of 500 μM. […] Viability of EpiDerm™ tissues was determined by MTT assay.

IL-1 alpha = IL-1 alpha cytokine response in media of EpiDerm tissues (ELISA); type: cell-based, human; conditions: media of EpiDerm tissues after exposure
Method: IL-1 alpha secretion was not elevated in response to the test compounds, indicating a low potential for allergic reactions. […] Cytokine levels were determined by ELISA.

[5] = Stability / isomerization in solvents; type: physicochemical; conditions: for stability in solvents: CH2Cl2, CHCl3, MeOH, and EtOH at room temperature; for stability on prolonged storage: in alcohol over several weeks
Source text: The resulting mixture was purified on HPLC yielding 4 and its diastereomer 5. […] The ^1H and ^13C NMR data of 4 and 5 were almost identical (Tables S2 and S3 of the appendix of U.S. Provisional Patent Application 62/295,343). […] Thus, the absolute configuration of C-3′-C-5′ was deduced as 3'S,4'S,5'S, opposite to that of 4.

| Molecule | effect of supplemental NaNO3 in test medium on antifungal efficacy (Tolypocladium sp. T1) | sensitivity of T1 to antifungal activity, normal versus NaNO3-supplemented medium (Tolypocladium sp. T1) | resistance of T1 culture (Tolypocladium sp. T1) | stability in solvents [5] | stability on prolonged storage [5] | further results |
| --- | --- | --- | --- | --- | --- | --- |
| COC(=O)C1=C[C@H](O)[C@H](O)[C@H](O)[C@H]1Cl [Compound 11, (+)-pericosine A] | – | – | – | – | – | neutralization of thiol on a surface (pig skin) ([1]; listed as Pericosine A): completely neutralize; neutralization of thiol on a surface (pig skin) ([1]; listed as pericosine A): quantitative consumption |
| Cc1cc(C2CCCCC2)n(O)c(=O)c1 [Compound 13, ciclopirox] | enhanced | equally sensitive | increasingly resistant | – | – | antifungal efficacy of 13 on co-treatment with 11 ([2]; co-treatment by 11 plus 13, fungi T1, T2, P1, P4, A1): reduced; decrease in the MIC of 13 ([2]; fungal cultures preincubated with 11, then treated with varying doses of 13): ≤ 8 fold; MIC [3]: 1 to 50 µM (≈ 0.207 to 10.4 µg/mL) |
| PF1140 [Compound 8] | enhanced | equally sensitive | increasingly resistant | – | – | – |
| Triton X-100 | – | – | – | – | – | EpiDerm tissue outcome ([4]; 1% control in the test with activating compound and fragrance): epidermal death; EpiDerm tissue outcome ([4]; 1% control, MTT assay): epidermal death; IL-1 alpha secretion (IL-1 alpha): significant response |
| pseudomaximiscin A [Compound 4] | – | – | – | stable for several days | modest levels of compound rearrangement | stability in DMSO-d6 ([5]; dissolved in DMSO-d6): Rapid isomerization |
| pseudomaximiscin B [Compound 5] | – | – | – | stable for several days | modest levels of compound rearrangement | – |
